Results taken from the supplement of paper PMC10307832.

What was measured:
Assay in all cases: relative viability (nuclei count vs DMSO), 5 days (fraction); higher = more cells survive
Carboplatin + Pemetrexed = compound: C1CC(C1)(C(=O)O)C(=O)O.[NH2-].[NH2-].[Pt+2] [Carboplatin] + Nc1nc2[nH]cc(CCc3ccc(C(=O)N[C@@H](CCC(=O)O)C(=O)O)cc3)c2c(=O)[nH]1 [Pemetrexed] (partner 0.2 µM)
How it was run: (§1)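 Relative viability divides the nuclei count in treated wells by that in vehicle wells. Lung cancer cell lines were seeded in 1536-well plates, dosed by pin tool the next day, and fixed and stained after 5 days in one step with final 0.05% Triton X-100, 1% formaldehyde and 1 ug/ml Hoechst. Dosing was a single drug or a fixed anchor-drug dose plus five library-drug doses (not always all listed) in √10 steps, and values are medians of duplicate plates imaged at 4×.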

Carboplatin + Vorinostat = compound: C1CC(C1)(C(=O)O)C(=O)O.[NH2-].[NH2-].[Pt+2] [Carboplatin] + O=C(CCCCCCC(=O)Nc1ccccc1)NO [Vorinostat] (partner 1 µM)
How it was run: as §1

MLN4924 + Tozasertib = compound: NS(=O)(=O)OC[C@@H]1C[C@@H](n2ccc3c(N[C@H]4CCc5ccccc54)ncnc32)C[C@@H]1O [MLN4924] + Cc1cc(Nc2cc(N3CCN(C)CC3)nc(Sc3ccc(NC(=O)C4CC4)cc3)n2)n[nH]1 [Tozasertib] (partner 0.1 µM)
How it was run: as §1

MLN4924 + Olaparib = compound: NS(=O)(=O)OC[C@@H]1C[C@@H](n2ccc3c(N[C@H]4CCc5ccccc54)ncnc32)C[C@@H]1O [MLN4924] + O=C(c1cc(Cc2n[nH]c(=O)c3ccccc23)ccc1F)N1CCN(C(=O)C2CC2)CC1 [Olaparib] (partner 8 µM)
How it was run: as §1

Row | Cell Line | relative viability (Carboplatin + Pemetrexed; first compound 0.08 µM) | relative viability (Carboplatin + Pemetrexed; first compound 0.253 µM) | relative viability (Carboplatin + Pemetrexed; first compound 0.8 µM) | relative viability (Carboplatin + Pemetrexed; first compound 2.53 µM) | relative viability (Carboplatin + Pemetrexed; first compound 8 µM) | relative viability (Carboplatin + Vorinostat; first compound 0.08 µM) | relative viability (Carboplatin + Vorinostat; first compound 0.253 µM) | relative viability (Carboplatin + Vorinostat; first compound 0.8 µM) | relative viability (Carboplatin + Vorinostat; first compound 2.53 µM) | relative viability (Carboplatin + Vorinostat; first compound 8 µM) | relative viability (MLN4924 + Tozasertib; first compound 0.04 µM) | relative viability (MLN4924 + Tozasertib; first compound 0.1265 µM) | relative viability (MLN4924 + Tozasertib; first compound 0.4 µM) | relative viability (MLN4924 + Tozasertib; first compound 1.265 µM) | relative viability (MLN4924 + Tozasertib; first compound 4 µM) | relative viability (MLN4924 + Olaparib; first compound 0.04 µM) | relative viability (MLN4924 + Olaparib; first compound 0.1265 µM) | relative viability (MLN4924 + Olaparib; first compound 0.4 µM) | relative viability (MLN4924 + Olaparib; first compound 1.265 µM) | relative viability (MLN4924 + Olaparib; first compound 4 µM)
1 | LCLC-97TM1 | 0.171 | 0.164 | 0.155 | 0.161 | 0.175 | 0.753 | 0.749 | 0.661 | 0.504 | 0.654 | 0.222 | 0.158 | 0.172 | 0.121 | 0.112 | 0.282 | 0.138 | 0.0947 | 0.0518 | 0.0597
2 | NCI-H2405 | 1.16 | 1.03 | 1.05 | 0.977 | 0.737 | 1.19 | 0.983 | 1.12 | 1.11 | 0.767 | 0.802 | 0.644 | 0.484 | 0.231 | 0.266 | 0.748 | 0.524 | 0.323 | 0.239 | 0.231
3 | NCI-H1915 | 0.487 | 0.531 | 0.505 | 0.47 | 0.416 | 0.508 | 0.506 | 0.513 | 0.48 | 0.299 | 0.399 | 0.362 | 0.395 | 0.212 | 0.159 | 0.314 | 0.22 | 0.221 | 0.142 | 0.129
4 | NCI-H650 | 0.935 | 0.97 | 0.947 | 1 | 0.903 | 0.504 | 0.457 | 0.503 | 0.366 | 0.275 | 0.584 | 0.356 | 0.307 | 0.161 | 0.187 | 0.244 | 0.159 | 0.17 | 0.137 | 0.129
5 | NCI-H1650 | 0.459 | 0.46 | 0.302 | 0.32 | 0.318 | 0.64 | 0.584 | 0.599 | 0.459 | 0.271 | 0.319 | 0.299 | 0.341 | 0.203 | 0.164 | 0.609 | 0.616 | 0.34 | 0.175 | 0.166
6 | NCI-H596 | 0.533 | 0.473 | 0.548 | 0.464 | 0.475 | 0.669 | 0.654 | 0.509 | 0.368 | 0.467 | 0.819 | 0.987 |  | 0.514 | 0.528 | 0.815 | 0.626 | 0.436 | 0.595 | 0.557
7 | HCC-44 | 0.637 | 0.684 | 0.569 | 0.535 | 0.606 | 1.14 | 1.11 | 1.03 | 0.999 | 0.957 | 0.816 | 0.471 | 0.186 | 0.231 | 0.272 | 0.882 | 0.748 | 0.694 | 0.538 | 0.414
8 | NCI-H2087 | 0.619 | 0.647 | 0.618 | 0.632 | 0.604 | 0.981 | 1.23 | 0.62 | 0.531 | 0.396 | 0.189 | 0.257 | 0.244 | 0.0576 | 0.0697 | 0.552 | 0.54 | 0.281 | 0.159 | 0.0852
9 | NCI-H522 | 0.814 | 0.924 | 1.11 | 1.01 | 0.913 | 0.882 | 0.904 | 0.944 | 0.968 | 0.669 | 0.503 | 0.502 | 0.458 | 0.363 | 0.304 | 0.568 | 0.495 | 0.485 | 0.288 | 0.322
10 | RERF-LC-KJ | 0.492 | 0.475 | 0.479 | 0.458 | 0.438 | 0.797 | 0.642 | 0.735 | 0.676 | 0.505 | 0.471 | 0.366 | 0.193 | 0.202 | 0.201 | 0.624 | 0.344 | 0.221 | 0.206 | 0.218
11 | NCI-H2126 | 0.759 | 0.64 | 0.724 | 0.698 | 0.647 | 0.804 | 0.894 | 0.832 | 0.823 | 0.856 | 0.821 | 0.813 | 0.514 | 0.339 | 0.25 | 0.862 | 0.668 | 0.618 | 0.258 | 0.246
12 | NCI-H2228 | 0.397 | 0.338 | 0.311 | 0.376 | 0.313 | 0.748 | 0.0948 | 0.623 | 0.566 | 0.343 | 0.259 | 0.195 | 0.122 | 0.144 | 0.123 | 0.486 | 0.532 | 0.279 | 0.109 | 0.162
13 | SK-LU-1 | 1.11 | 0.937 | 0.958 | 0.899 | 0.676 | 0.923 | 0.657 | 0.861 | 0.664 | 0.459 | 0.356 | 0.295 | 0.171 | 0.0898 | 0.111 | 0.493 | 0.433 | 0.256 | 0.157 | 0.172
14 | HARA | 0.232 | 0.201 | 0.241 | 0.247 | 0.246 | 0.471 | 0.561 | 0.472 | 0.519 | 0.35 | 0.101 | 0.0797 | 0.0797 | 0.0484 | 0.065 | 0.401 | 0.413 | 0.127 | 0.0734 | 0.107
15 | EPLC-272H | 0.368 | 0.309 | 0.359 | 0.301 | 0.326 | 0.559 | 0.377 | 0.569 | 0.337 | 0.293 | 0.249 | 0.159 | 0.0675 | 0.132 | 0.133 | 0.352 | 0.176 | 0.0677 | 0.0995 | 0.105
16 | SK-MES-1 | 1.04 | 0.928 | 0.92 | 0.972 | 0.843 | 1.19 | 1.06 | 1.08 | 1.01 | 0.961 | 0.773 | 0.682 | 0.33 | 0.157 | 0.189 | 0.653 | 0.545 | 0.305 | 0.158 | 0.234
